From article PMC5855801, “Benzothiophenone Derivatives Targeting Mutant Forms of Estrogen Receptor-α in Hormone-Resistant Breast Cancers” (International Journal of Molecular Sciences, 2018)

Biological target: T1, androgen receptor (AR) (Homo sapiens, UniProt P10275)
T1 construct: expressed in transfected cells; host or cells: PC3
T1 sequence (P10275 1-920): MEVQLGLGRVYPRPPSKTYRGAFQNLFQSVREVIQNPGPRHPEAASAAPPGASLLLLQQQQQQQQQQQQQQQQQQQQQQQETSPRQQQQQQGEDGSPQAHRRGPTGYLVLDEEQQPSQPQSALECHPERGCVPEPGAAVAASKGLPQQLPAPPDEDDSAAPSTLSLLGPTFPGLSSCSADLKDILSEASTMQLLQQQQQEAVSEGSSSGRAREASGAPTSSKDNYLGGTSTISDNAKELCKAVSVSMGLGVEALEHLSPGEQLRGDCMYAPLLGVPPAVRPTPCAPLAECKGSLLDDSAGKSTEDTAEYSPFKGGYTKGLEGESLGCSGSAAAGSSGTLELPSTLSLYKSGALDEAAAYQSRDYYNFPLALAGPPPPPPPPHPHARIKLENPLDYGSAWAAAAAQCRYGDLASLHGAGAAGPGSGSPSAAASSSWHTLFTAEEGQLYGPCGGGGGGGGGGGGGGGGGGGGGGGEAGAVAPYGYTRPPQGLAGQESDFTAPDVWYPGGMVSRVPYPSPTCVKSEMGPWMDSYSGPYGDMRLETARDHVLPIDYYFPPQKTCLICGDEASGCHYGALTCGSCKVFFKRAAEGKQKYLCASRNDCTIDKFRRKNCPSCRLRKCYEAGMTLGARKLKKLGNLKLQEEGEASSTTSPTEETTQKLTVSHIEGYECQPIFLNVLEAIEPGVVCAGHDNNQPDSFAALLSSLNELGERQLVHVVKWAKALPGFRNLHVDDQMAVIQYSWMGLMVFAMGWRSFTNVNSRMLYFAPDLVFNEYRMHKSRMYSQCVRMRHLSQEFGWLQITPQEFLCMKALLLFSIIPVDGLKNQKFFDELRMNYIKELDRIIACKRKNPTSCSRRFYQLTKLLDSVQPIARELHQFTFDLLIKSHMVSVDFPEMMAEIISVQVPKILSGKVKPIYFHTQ
Test: Luciferase reporter selectivity assay in PC3 cells, AR
Assay type: cell-based
Conditions: 24 h
Experimental: Figure 4 Further activity profile of VPC-16606. (A,B) Chromatin immunoprecipitation (ChIP) analysis of ERα binding to the pS2 enhancer, or the GAPDH promoter, in MCF7 cells. Where indicated, ERα was stimulated with 1 nM E2 or dimethyl sulfoxide (DMSO) alone, and the compound was administered at a 6 μM concentration. Sheared chromatin-protein complexes were precipitated with the ERα antibody, reverse cross-linked and analyzed by quantitative PCR. The results are normalized as fold enrichment over precipitation with a rabbit isotype control IgG antibody for each condition tested. Error bars indicate standard error of the mean (SEM) for 3 independent experiments performed in triplicates. Fold enrichment from the compound tested condition (ERα antibody) was statistically compared against DMSO + E2 with a two-tailed t-test (unpaired) *** indicates p-value <0.001. (C) Specificity of VPC-16606 was evaluated in the luciferase reporter assay. PC3 cells were transfected with plasmids expressing androgen receptor (AR), progesterone receptor (PR) or glucocorticoid receptor (GR) along with their responsive luciferase reporter constructs bearing androgen response element (ARE), progesterone response element (PRE) or glucocorticoid response element (GRE), respectively. […] Y-axis represents relative luminescence (RLU) after normalizing to constitutive renilla reporter. […]

CC(=O)N(/N=C1\Sc2c(C)cccc2C1=O)c1ccccc1Cl [VPC-16606]
Effect on AR activity (luciferase) (50 µM): some effect
Effect on AR activity (luciferase) (doses up to 25 µM): does not affect the activity
